Measured values published in patent US4443459A, “α-Tocopheryl ester of 5-substituted picolinic acid and hypotensive composition containing it” (Banyu Pharmaceutical Co., Ltd., priority 1981, dated 1984).

Legend:
in vivo = settings: mouse
Method: ddY-Strain female mice (body weight about 20 g), five per group, were used and each of the test compounds was orally or intraperitoneally administered, and two days after the administration, the number of dead mice was counted. From it, the acute toxicity LD50 of each of the compounds was determined by the Behrens-Kraerber method.

[1] = system: Spontaneous hypertensive rats; assay: Hypotensive action in spontaneous hypertensive rats, oral (tail artery pressure, plethysmography; Table 1); type: in vivo, rat (spontaneous hypertensive, male); settings: spontaneous hypertensive rats
Description: (§1) dl-α-tocopheryl 5-butylpicolinate and dl-α-tocopherol were used after they were each dissolved in a suitable amount of ethyl ether, mixed with a solution containing 2% of Tween 80 and 2% of Span 40 and after removing ethyl ether, uniformly emulsified. 5-Butylpicolinic acid was used as a solution in 2% Tween 80+2% Span.
(§2) Spontaneous hypertensive rats (male, body weight 350 to 370 g) and Wistar rats with a normal blood pressure level (female, body weight 250 to270 g), three per group, were used. Without anesthesia, the pressure of the tail artery was measured by plethysmography.

stomach of rats = assay: Side-effects: gastric trouble after oral administration for 4 consecutive days; type: in vivo, rat; settings: 100 mg/kg
Method: dl-α-Tocopheryl 5-butylpicolinate of the invention and 5-butylpicolinic acid as a control were administered orally to rats for 4 consecutive days at a dose of 300 mg/kg (90.9 mg/kg calculated for 5-butylpicolinic acid) and 100 mg/kg. Then, the stomach of each rat was incised and observed for the occurrence of a gastric trouble.

Normotensive Wistar rats = assay: Hypotensive action in normotensive Wistar rats, oral (tail artery pressure, plethysmography; Table 2); type: in vivo, rat (Wistar, female); settings: 50 mg/kg oral, normotensive Wistar rats
Description: as §1, §2

CCCCc1ccc(C(=O)O)nc1 [B, 5-butylpicolinic acid, reference compound]
LD50 at 48 h (in vivo; ip): 89 mg/kg | LD50 at 48 h (in vivo; po): 180 mg/kg | Blood pressure lowering rate, 1h ([1]; 3.125 mg/kg oral): 16.9% | Blood pressure lowering rate, 2h ([1]; 3.125 mg/kg oral): 0.7% | Blood pressure lowering rate, 3h ([1]; 3.125 mg/kg oral): 0% | Blood pressure lowering rate, 4h ([1]; 3.125 mg/kg oral): 0% | Blood pressure lowering rate, 1h ([1]; 12.5 mg/kg oral): 35.7% | Blood pressure lowering rate, 2h ([1]; 12.5 mg/kg oral): 21.7% | Blood pressure lowering rate, 3h ([1]; 12.5 mg/kg oral): 11.8% | Blood pressure lowering rate, 4h ([1]; 12.5 mg/kg oral): 0% | occurrence of gastric trouble (stomach of rats): Light degrees of edema, congestion, or bleeding were noted in the stomachs of all cases (five rats) | Blood pressure lowering rate, 1h (Normotensive Wistar rats; 1h): 27.0% | Blood pressure lowering rate, 2h (Normotensive Wistar rats; 2h): 33.5% | Blood pressure lowering rate, 3h (Normotensive Wistar rats; 3h): 26.2% | Blood pressure lowering rate, 4h (Normotensive Wistar rats; 4h): 0%
